Tested on: methicillin-resistant S. aureus (MRSA)
Test: MRSA skin infection, wound closure
Type: in vivo, mice
Conditions: Day 7
Protocol: FIG. 11B are photos from the top view of mice with skin infection caused by MRSA before (at Day 0) and after different treatments (at Day 7): top left received 2% mupirocin via topical BID for 7 days; top right received 100 mg/kg linezolid via oral BID for 7 days; bottom received 30 mg/kg IM032 via oral BID for 7 days.
Visual wound healing/closure in different treatment groups of mice can be observed in FIG. 11B.

## CC(=O)NC[C@H]1CN(c2ccc(N3CCOCC3)c(F)c2)C(=O)O1 [Linezolid, linezolid, reference compound]
100 mg/kg oral twice a day
  percentage of wound closure: 48.4%

## C/C(=C\C(=O)OCCCCCCCCC(=O)O)C[C@@H]1OC[C@H](C[C@@H]2O[C@H]2[C@@H](C)[C@H](C)O)[C@@H](O)[C@H]1O [Mupirocin, mupirocin, reference compound]
2% topical twice a day
  percentage of wound closure: 43.2%

Reference: patent publication US11040949B2, “Compounds affecting pigment production and methods for treatment of bacterial diseases” (Versitech Limited, priority 2017, dated 2021)
